What all share (type): cell-based
The target of one assay is T1, PLK1 (Homo sapiens, UniProt P53350).
T1 construct: endogenous in cells; host or cells: HeLa LgBit (Plk1-HiBit KI): HeLa stably expressing LgBit, with a CRISPR/Cas9 knock-in of HiBit at the endogenous PLK1 locus
The experiment in a line: Luciferase assay for PLK1 in HeLa LgBit (Plk1-HiBit KI) cell line. Particulars: 300 nM compound, luminescence after 9 hours. In a few lines:
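HeLa cells stably expressing LgBit, with HiBit knocked in at the C-terminus of endogenous Plk1, released from a 24 h 2 mM thymidine block and grown 18 h. Endurazine added, then compound at 300 nM; luminescence tracked in real time, expressed as ratio to DMSO.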
(In general: With HiBiT, luminescence reflects the tagged protein that the partner subunit can reach.)

In another assay the test system is NCI-H526 cell line. In words: Cell viability assay for H526 cell (EZ-Cytox). Particulars: Homo sapiens, NCI-H526, 120 h; H526 cells, 5 days, 3000 nM to 0.46 nM. The gist of the method: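 NCI-H526 cells were exposed to compound in CO2 incubator culture for 5 days. Viability was read by EZ-Cytox absorbance at 450 nm after 3 min shaking, giving IC50 values.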
For a further assay, the system named is MRC-5 cell line. In words: Cell viability assay for MRC-5 cell line (EZ-Cytox). Particulars: Homo sapiens, MRC5, 120 h; MRC-5 normal cell line, 5 days, 10000 nM to 1.52 nM; N.D. = no cytotoxicity until 10 μM; read-out: Activity: IC50 value of Exemplary Compound to MRC-5 cell line. As to the method: 4. Cell Viability Assay for MRC-5 Cell Line
(1) Culture of MRC-5 Cell Line
Passage of cultured cells was maintained within P15.
(2) Treatment of Compounds of the Present Invention
Then, it was cultured in 37° C.
(3) Cytotoxicity Experiment
CO2 incubator for 4 hours.

SMILES strings stand for the structures. pIC50: −log10 of the molar value.

T1 sequence (P53350 whole entry): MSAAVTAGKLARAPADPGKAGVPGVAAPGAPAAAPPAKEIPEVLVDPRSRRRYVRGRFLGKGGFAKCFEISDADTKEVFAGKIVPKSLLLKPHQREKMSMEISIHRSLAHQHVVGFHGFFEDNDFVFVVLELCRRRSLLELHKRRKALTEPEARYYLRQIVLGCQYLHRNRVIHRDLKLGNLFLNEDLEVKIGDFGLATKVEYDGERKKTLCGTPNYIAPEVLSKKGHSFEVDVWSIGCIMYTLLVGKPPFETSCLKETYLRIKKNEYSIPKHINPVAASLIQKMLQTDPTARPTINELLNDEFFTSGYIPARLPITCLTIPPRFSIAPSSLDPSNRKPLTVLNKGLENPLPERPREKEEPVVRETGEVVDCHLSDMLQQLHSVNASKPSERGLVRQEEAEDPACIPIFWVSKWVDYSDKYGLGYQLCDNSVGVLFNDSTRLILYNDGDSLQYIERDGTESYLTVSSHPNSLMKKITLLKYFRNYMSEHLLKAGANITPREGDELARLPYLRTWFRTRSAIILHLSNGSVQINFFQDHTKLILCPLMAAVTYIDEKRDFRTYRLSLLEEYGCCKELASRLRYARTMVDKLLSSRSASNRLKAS

Consider `COc1cc(C(=O)NC2CCN(CCCN3CCN(c4cccc5c4C(=O)N(C4CCC(=O)NC4=O)C5=O)CC3)CC2)ccc1Nc1ncc2c(n1)N(C1CCCC1)CC(F)(F)C(=O)N2C` (stereo not drawn) [Compound 60, 4-((9-cyclopentyl-7,7-difluoro-5-methyl-6-oxo-6,7,8,9-tetrahydro-5H-pyrimido[4,5-b][1,4]diazepin-2-yl)amino)-N-(1-(3-(4-(2-(2,6-dioxopiperidin-3-yl)-1,3-dioxoisoindolin-4-yl)piperazin-1-yl)propyl)piperidin-4-yl)-3-methoxybenzamide], for which the “Activity: ratio of the luminescense value of each Exemplary Compound treatment group to DMSO treatment group” value (“Activity: ratio” for short) at PLK1 is given as “++ (++<0.6)”. The pIC50 (commonly the IC50 on a negative log10 scale, so that one unit is a factor of ten) was more than 7.52 with NCI-H526 cell line and 5.38 in the assay on MRC-5 cell line.
For `COc1cc(C(=O)NN2CCC(CN3CCN(c4cccc5c4CN(C4CCC(=O)NC4=O)C5=O)CC3)C(F)(F)C2)ccc1Nc1ncc2c(n1)N(C(C)C)CC(F)(F)C(=O)N2C` (stereo not drawn) [Compound 158, 4-((7,7-difluoro-9-isopropyl-5-methyl-6-oxo-6,7,8,9-tetrahydro-5H-pyrimido[4,5-b][1,4]diazepin-2-yl)amino)-N-(4-((4-(2-(2,6-dioxopiperidin-3-yl)-1-oxoisoindolin-4-yl)piperazin-1-yl)methyl)-3,3-difluoropiperidin-1-yl)-3-methoxybenzamide], the “Activity: ratio” value on PLK1 is on record as “+++ (+++: <0.3)”. In addition, the pIC50 was more than 7.30 with NCI-H526 cell line and 4.41 in the assay on MRC-5 cell line.
Regarding `COc1cc(C(=O)NC2CC(N(C)C3CCN(c4cccc5c4C(=O)N(C4CCC(=O)NC4=O)C5=O)CC3)C2)ccc1Nc1ncc2c(n1)N(C(C)C)CC(F)(F)C(=O)N2C` (stereo not drawn) [Compound 164, 4-((7,7-difluoro-9-isopropyl-5-methyl-6-oxo-6,7,8,9-tetrahydro-5H-pyrimido[4,5-b][1,4]diazepin-2-yl)amino)-N-(3-((1-(2-(2,6-dioxopiperidin-3-yl)-1,3-dioxoisoindolin-4-yl)piperidin-4-yl)(methyl)amino)cyclobutyl)-3-methoxybenzamide], on PLK1, the “Activity: ratio” value is on record as “++ (++<0.6)”. The results for the pIC50 with NCI-H526 cell line and in the assay on MRC-5 cell line were more than 7.52 and less than 5.00, respectively.
Consider `COc1cc(C(=O)N2CCC(CCN3CCN(c4ccc5c(c4)C(=O)N(C4CCC(=O)NC4=O)C5=O)CC3)CC2)ccc1Nc1ncc2c(n1)N(C1CCCC1)CC(F)(F)C(=O)N2C` (stereo not drawn) [Compound 98, 5-(4-(2-(1-(4-((9-cyclopentyl-7,7-difluoro-5-methyl-6-oxo-6,7,8,9-tetrahydro-5H-pyrimido[4,5-b][1,4]diazepin-2-yl)amino)-3-methoxybenzoyl)piperidin-4-yl)ethyl)piperazin-1-yl)-2-(2,6-dioxopiperidin-3-yl)isoindoline-1,3-dione], for which the “Activity: ratio” value on PLK1 was “++ (++<0.6)”. Besides, the pIC50 in the assay on NCI-H526 cell line is more than 6.40; in the assay with MRC-5 cell line it was less than 5.00.
For `COc1cc(C(=O)NC2CCN(C(=O)CCC3CCN(c4cccc5c4C(=O)N(C4CCC(=O)NC4=O)C5=O)CC3)CC2)ccc1Nc1ncc2c(n1)N(C1CCCC1)CC(F)(F)C(=O)N2C` (stereo not drawn) [Compound 62, 4-((9-cyclopentyl-7,7-difluoro-5-methyl-6-oxo-6,7,8,9-tetrahydro-5H-pyrimido[4,5-b][1,4]diazepin-2-yl)amino)-N-(1-(3-(1-(2-(2,6-dioxopiperidin-3-yl)-1,3-dioxoisoindolin-4-yl)piperidin-4-yl)propanoyl)piperidin-4-yl)-3-methoxybenzamide], in that order: “+++ (+++: <0.3)”, more than 7.00 and less than 5.00.
For the molecule `COc1cc(C(=O)NN2CCC(N3CC4(CCN(c5cc6c(cc5F)C(=O)N(C5CCC(=O)NC5=O)C6=O)CC4)C3)CC2)c(F)cc1Nc1ncc2c(n1)N(C(C)C)CC(F)(F)C(=O)N2C` (stereo not drawn) [Compound 217, 4-((7,7-difluoro-9-isopropyl-5-methyl-6-oxo-6,7,8,9-tetrahydro-5H-pyrimido[4,5-b][1,4]diazepin-2-yl)amino)-N-(4-(7-(2-(2,6-dioxopiperidin-3-yl)-6-fluoro-1,3-dioxoisoindolin-5-yl)-2,7-diazaspiro[3.5]nonan-2-yl)piperidin-1-yl)-2-fluoro-5-methoxybenzamide], the “Activity: ratio” value at PLK1 is “++ (++<0.6)”. The pIC50 in the assay with NCI-H526 cell line was more than 6.40; in the assay on MRC-5 cell line, 4.78.
For `COc1cc(C(=O)NC2CCN(CCOc3cccc4c3C(=O)N(C3CCC(=O)NC3=O)C4=O)CC2)ccc1Nc1ncc2c(n1)N(C1CCCC1)CC(F)(F)C(=O)N2C` (stereo not drawn) [Compound 5, 4-((9-cyclopentyl-7,7-difluoro-5-methyl-6-oxo-6,7,8,9-tetrahydro-5H-pyrimido[4,5-b][1,4]diazepin-2-yl)amino)-N-(1-(2-((2-(2,6-dioxopiperidin-3-yl)-1,3-dioxoisoindolin-4-yl)oxy)ethyl)piperidin-4-yl)-3-methoxybenzamide], in that order: “++ (++<0.6)”, more than 6.40 and 4.70.
For `COc1cc(C(=O)NC2CCN(C(=O)CC3CCN(c4cccc5c4C(=O)N(C4CCC(=O)NC4=O)C5=O)C3)CC2)c(F)cc1Nc1ncc2c(n1)N(C1CCCC1)CC(F)(F)C(=O)N2C` (stereo not drawn) [Compound 44, 4-((9-cyclopentyl-7,7-difluoro-5-methyl-6-oxo-6,7,8,9-tetrahydro-5H-pyrimido[4,5-b][1,4]diazepin-2-yl)amino)-N-(1-(2-(1-(2-(2,6-dioxopiperidin-3-yl)-1,3-dioxoisoindolin-4-yl)pyrrolidin-3-yl)acetyl)piperidin-4-yl)-2-fluoro-5-methoxybenzamide], in that order: “++ (++<0.6)”, more than 7.00 and less than 5.00.
`C=C[C@@]1(F)CN(C2CCCC2)c2nc(Nc3ccc(C(=O)NC4CCN(C(=O)CCN5CCN(c6cccc7c6C(=O)N(C6CCC(=O)NC6=O)C7=O)CC5)CC4)cc3OC)ncc2N(C)C1=O` (single isomer, unassigned) [Compound 108]: on PLK1, the “Activity: ratio” value is listed as “++ (++<0.6)”. Further, the results for the pIC50 with NCI-H526 cell line and in the assay on MRC-5 cell line were more than 7.00 and less than 5.00, respectively.
For `COc1cc(C(=O)N(C)C2CCN(C(=O)CCN3CCN(c4cccc5c4C(=O)N(C4CCC(=O)NC4=O)C5=O)CC3)CC2)ccc1Nc1ncc2c(n1)N(C1CCCC1)CC(F)(F)C(=O)N2C` (stereo not drawn) [Compound 77, 4-((9-cyclopentyl-7,7-difluoro-5-methyl-6-oxo-6,7,8,9-tetrahydro-5H-pyrimido[4,5-b][1,4]diazepin-2-yl)amino)-N-(1-(3-(4-(2-(2,6-dioxopiperidin-3-yl)-1,3-dioxoisoindolin-4-yl)piperazin-1-yl)propanoyl)piperidin-4-yl)-3-methoxy-N-methylbenzamide], in that order: “++ (++<0.6)”, more than 7.00 and less than 5.00.
For `COc1cc(C(=O)NN2CCC(N3CCN(c4ccc5c(c4)C(=O)N(C4CCC(=O)NC4=O)C5=O)CC3)C2)ccc1Nc1ncc2c(n1)N(C(C)C)CC(F)(F)C(=O)N2C` (stereo not drawn) [Compound 154, 4-((7,7-difluoro-9-isopropyl-5-methyl-6-oxo-6,7,8,9-tetrahydro-5H-pyrimido[4,5-b][1,4]diazepin-2-yl)amino)-N-(3-(4-(2-(2,6-dioxopiperidin-3-yl)-1,3-dioxoisoindolin-5-yl)piperazin-1-yl)pyrrolidin-1-yl)-3-methoxybenzamide], in that order: “++ (++<0.6)”, more than 7.00 and less than 5.00.
As for `COc1cc(C(=O)N[C@H]2CC[C@H](N(C)CC3CCN(c4ccc5c(c4)C(=O)N(C4CCC(=O)NC4=O)C5=O)CC3)CC2)ccc1Nc1ncc2c(n1)N(C(C)C)CC(F)(F)C(=O)N2C` (stereo partly drawn) [Compound 153, 4-((7,7-difluoro-9-isopropyl-5-methyl-6-oxo-6,7,8,9-tetrahydro-5H-pyrimido[4,5-b][1,4]diazepin-2-yl)amino)-N-((1r,4r)-4-(((1-(2-(2,6-dioxopiperidin-3-yl)-1,3-dioxoisoindolin-5-yl)piperidin-4-yl)methyl)(methyl)amino)cyclohexyl)-3-methoxybenzamide], the “Activity: ratio” value at PLK1 was “++ (++<0.6)”. For the same molecule, the pIC50 was more than 7.30 with NCI-H526 cell line and 4.80 in the assay with MRC-5 cell line.
For `COc1cc(C(=O)NN2CCC(N3CCN(c4cccc5c4C(=O)N(C4CCC(=O)NC4=O)C5=O)CC3)C2)ccc1Nc1ncc2c(n1)N(C(C)C)CC(F)(F)C(=O)N2C` (stereo not drawn) [Compound 155, 4-((7,7-difluoro-9-isopropyl-5-methyl-6-oxo-6,7,8,9-tetrahydro-5H-pyrimido[4,5-b][1,4]diazepin-2-yl)amino)-N-(3-(4-(2-(2,6-dioxopiperidin-3-yl)-1,3-dioxoisoindolin-4-yl)piperazin-1-yl)pyrrolidin-1-yl)-3-methoxybenzamide], in that order: “+ (+<0.7)”, more than 7.00 and less than 5.00.
